Biological target: T1, enzymes in the synthesis of aldosterone (Rattus norvegicus, UniProt P30099)
T1 construct: From these animals, adrenal capsule/glomerulosa homogenates were prepared; from tissue; host or cells: adrenal capsule/glomerulosa homogenate of sodium-deficient young male Sprague-Dawley rats
Assay: Inhibition of aldosterone formation from [3H]-DOC in rat adrenal capsule/glomerulosa homogenates
Assay type: biochemical, Sprague-Dawley rats
Conditions: pH 7.4, 25° C.; for IC50: 40 minute preincubation data, 10-minute assay, 1 μM [3H]-DOC, read-out: IC50 (half-maximal inhibition of aldosterone formation); for t50 (t1/2 for enzyme inactivation at infinite inhibitor concentration) / Ki: linear regression of t1/2 vs. 1/[I], Kitz-Wilson plots; for Ki: read-out: Ki for time-dependent inhibition
Experimental: Young male Sprague-Dawley rats were maintained on a sodium-deficient diet for about two weeks prior to use. From these animals, adrenal capsule/glomerulosa homogenates were prepared (6 mg/ml) in pH 7.4 assay buffer [MgCl2 8.5 mM, CaCl2 2.7 mM, KCl 3.13 mM, NaCl 7.591 mM, TRIS 50 mM and 0.1% triethylamine] and centrifuged 500xg for 10 minutes.
Assays were conducted in 35 ml glass tubes maintained at 25° C. in a Dubnoff shaker with 95% O2 /5% CO2. The tubes contained the following material: 100 μl of an NADPH^+ generating system, 300 μl of adrenal capsular/glomerulosa cytosol, and 50 μl of test compound or buffer (control). After initial preincubation intervals of 20 minutes, the 10-minute assay was started by the addition of 50 μl of tritium-labelled substrate, i.e., 1 μM [^3 H]-DOC. Reactions were quenched by the addition of 5 ml of ethyl acetate and non-radiolabelled steroids were also added. The samples were extracted twice with 5 ml of ethyl acetate and the solvent evaporated under nitrogen at 30°-40° C.
Residues were redissolved in methanol:water (40:60) with 0.1% triethylamine and high performance liquid chromatography was used to separate products on a C18 reverse phase (5μ ODS-Hypersil) column (4.6×250 mm, Shannon) with a 1 ml/min flow rate using an MeOH:H20 gradient (solvent A 10/90:solvent B 90/10).
Substrate remaining and products formed were monitored by UV absorbance at 246 nm and the amount of steroid compound present was quantified by [^3 H] radioactivity. The concentration of compound to produce half-maximal inhibition (IC50) of aldosterone formation from the 40 minute preincubation data was graphically estimated from a linear-log plot of percent inhibition vs. log of the compound concentration. The Ki for time-dependent inhibition and the t1/2 for enzyme inactivation at infinite inhibitor concentration (t50) was determined by the linear regression analyses of t1/2 vs. 1/[I] data of Kitz-Wilson plots. Using this procedure, the following results were observed: […]

| Compound | IC50 | t50 (t1/2 for enzyme inactivation at infinite inhibitor concentration) | Ki |
| --- | --- | --- | --- |
| C[C@]12CC[C@H]3[C@@H](CC=C4C[C@@H](O)CC[C@@]43C)[C@@H]1CC[C@@H]2NC1CC1 [17β-(Cyclopropylamino)androst-5-en-3β-ol] | 1.1 µM | 9.7 min | 4.85 µM |
| CN(C1CC1)[C@H]1CC[C@H]2[C@@H]3CC=C4C[C@@H](O)CC[C@]4(C)[C@H]3CC[C@]12C [17β-[N-Methyl(cyclopropylamino)]-androst-5-en-3β-ol] | 0.35 µM | 9.0 min | 0.35 µM |
| C[C@]12CC[C@H]3[C@@H](CCC4=CC(=O)CC[C@@]43C)[C@@H]1CC[C@@H]2NC1CC1 [17β-(Cyclopropylamino)androst-4-en-3-one] | 0.18 µM |  |  |
| CN(C1CC1)[C@H]1CC[C@H]2[C@@H]3CCC4=CC(=O)CC[C@]4(C)[C@H]3CC[C@]12C [17β-[N-Methyl(cyclopropylamino)]androst-4-en-3-one] | 0.13 µM | 15.4 min | 0.14 µM |

Source: patent US4954488A, “Method of treating hyperaldosteronism using 17β-cyclopropylaminoandrostene derivatives” (Merrell Dow Pharmaceuticals Inc., priority 1989, dated 1990)
